Data on 25 molecules can be found in ChEMBL document CHEMBL1201862, “PubChem BioAssay data set” (2004).

Among the test systems are HOP-18; KM-20L2; DMS-114; XF498; RXF 631; LXFL 529; M19-MEL; SNB-78; DMS-273.
Test in all cases: NCI tumour cell line growth inhibition, 48 h

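96-well plates; 48 h exposure; 5 concentrations. Endpoints by linear interpolation between flanking doses. Not reached: highest tested concentration assigned. GI50 marks 50% less growth.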 Active and inactive are the calls of the source. Rule as the data show it: active = GI50 up to about 1.1 µM and inactive = higher.

`COC[C@@H](/N=C/N1CCc2cc(OC)c(OC)cc2C1)C(C)(C)C`: the GI50 in the assay with HOP-18, in the assay with KM-20L2, in the assay on DMS-114, in the assay with XF498, with RXF 631 and in the assay with LXFL 529 was > 100 µM (inactive) each time. Further, the GI50 in the assay on M19-MEL is > 100 µM (inactive).

Consider `Cc1ccc(C(=O)Nc2ccc(S(=O)(=O)O)c3cc(S(=O)(=O)O)cc(S(=O)(=O)O)c23)cc1NC(=O)c1cccc(NC(=O)Nc2cccc(C(=O)Nc3cc(C(=O)Nc4ccc(S(=O)(=O)O)c5cc(S(=O)(=O)O)cc(S(=O)(=O)O)c45)ccc3C)c2)c1` [SURAMIN], for which the GI50 with HOP-18 is > 52.4 µM (inactive); in the assay with KM-20L2 it was 34.6 µM (inactive); with DMS-114, 28.6 µM (inactive); in the assay with SNB-78, > 71.3 µM (inactive); in the assay with XF498, 27 µM (inactive); in the assay on DMS-273 it was 39.8 µM (inactive). Also, the GI50 with LXFL 529 is > 100 µM (inactive); in the assay with M19-MEL, 59.7 µM (inactive).

`CC(C)C(Nc1c2ccccc2nc2ccccc12)C(=O)O` (stereo not drawn): the GI50 in the assay on KM-20L2 was > 100 µM (inactive); in the assay on XF498, 3.08 µM (inactive); in the assay on DMS-273, 68.4 µM (inactive); in the assay with LXFL 529 it was > 100 µM (inactive); in the assay with M19-MEL it was > 100 µM (inactive).

Consider `O=C1NC(c2ccccc2)(c2ccccc2)C(=O)N1CCCCCCN1C(=O)NC(c2ccccc2)(c2ccccc2)C1=O`, for which the GI50 in the assay with HOP-18 was 26.2 µM (inactive); with KM-20L2, > 100 µM (inactive); in the assay on DMS-114 it was 34.2 µM (inactive); with SNB-78 it was 33.3 µM (inactive); in the assay with XF498, 10.3 µM (inactive); with DMS-273 it was 46 µM (inactive). The GI50 was 25.9 µM (inactive) in the assay with LXFL 529 and > 100 µM (inactive) in the assay on M19-MEL.

On to `C[C@H]1CC[C@H](NC(=O)N(CCCl)N=O)CC1`, for which the GI50 was 40.8 µM (inactive) with HOP-18; 56.4 µM (inactive) with KM-20L2; 36.5 µM (inactive) with DMS-114; 35.2 µM (inactive) in the assay on SNB-78; 45.7 µM (inactive) in the assay with XF498; 33.1 µM (inactive) in the assay on RXF 631. For the same molecule, the GI50 is 33.1 µM (inactive) in the assay with DMS-273, 14.9 µM (inactive) with LXFL 529 and 41.3 µM (inactive) in the assay on M19-MEL.

Consider `CN1C(=O)C(Cl)(C(Cl)(Cl)S(=O)(=O)O)C(=O)c2ccccc21.c1ccncc1` (stereo not drawn), for which the GI50 is 19.5 µM (inactive) in the assay with KM-20L2, > 100 µM (inactive) in the assay on LXFL 529 and > 100 µM (inactive) with M19-MEL.

Consider `O=c1cc(-c2ccccc2)oc2cc(O)cc(O)c12` [CHRYSIN], for which the GI50 in the assay with KM-20L2 was 23.9 µM (inactive); with DMS-114, 22.4 µM (inactive); in the assay on SNB-78, 28.8 µM (inactive); in the assay on XF498, 20 µM (inactive); in the assay with DMS-273 it was 16.2 µM (inactive); with LXFL 529 it was 21.1 µM (inactive). The GI50 with M19-MEL is 25.5 µM (inactive).

Consider `CCN1CCC(O)(c2ccc(Cl)cc2)C(C(=O)c2ccc(Cl)cc2)C1` (stereo not drawn), for which the GI50 was 22.6 µM (inactive) in the assay on HOP-18; > 100 µM (inactive) in the assay on KM-20L2; > 100 µM (inactive) in the assay on SNB-78; > 100 µM (inactive) in the assay on XF498; > 100 µM (inactive) in the assay on DMS-273; > 100 µM (inactive) in the assay on LXFL 529. In addition, in the assay on M19-MEL, the GI50 was > 100 µM (inactive).

For `S=P(N1CC1)(N1CC1)N1CC1` [THIOTEPA], the GI50 in the assay on HOP-18 is 231 µM (inactive); in the assay with KM-20L2, 175 µM (inactive); in the assay with DMS-114 it was 35.4 µM (inactive); with SNB-78, 385 µM (inactive); in the assay on XF498 it was 95.1 µM (inactive); in the assay on DMS-273, 21.3 µM (inactive). The GI50 in the assay on LXFL 529 is 146 µM (inactive); in the assay on M19-MEL, 142 µM (inactive).

With `CCN(CC)c1ccc2c(c1)N=C1N=CC=CN1C2(c1ccc(N(C)C)cc1)c1ccc(N(C)C)cc1`, the GI50 in the assay with HOP-18 was 3.72 µM (inactive); in the assay with KM-20L2, 2.97 µM (inactive); in the assay on DMS-114 it was 3.09 µM (inactive); with SNB-78 it was 16.7 µM (inactive); with XF498, 3.72 µM (inactive); in the assay on RXF 631, 3.83 µM (inactive). In addition, the GI50 was 25.8 µM (inactive) in the assay on DMS-273, 3.84 µM (inactive) in the assay with LXFL 529 and 5.97 µM (inactive) with M19-MEL.

As to `O=C(N/C(=C\c1cccc([N+](=O)[O-])c1)c1nc2cc([N+](=O)[O-])ccc2[nH]1)c1ccccc1`, the GI50 in the assay on KM-20L2 is 23.1 µM (inactive); with SNB-78 it was 49.3 µM (inactive); in the assay on XF498, 20.7 µM (inactive); in the assay with RXF 631 it was 28.8 µM (inactive); with DMS-273 it was 39 µM (inactive); with LXFL 529, 11 µM (inactive). For the same molecule, the GI50 with M19-MEL is 40.7 µM (inactive).

As to `COC(=O)C1=C(c2ccc(OC)c(OC)c2)OC(c2ccc(OC)c(OC)c2)C1` (stereo not drawn), the GI50 is 33.5 µM (inactive) with HOP-18; 39.4 µM (inactive) in the assay on KM-20L2; 23.2 µM (inactive) in the assay on DMS-114; 28.7 µM (inactive) in the assay with SNB-78; 23.2 µM (inactive) in the assay with XF498; 54.7 µM (inactive) in the assay with DMS-273. The GI50 in the assay with LXFL 529 was 16.2 µM (inactive); in the assay on M19-MEL, 42.6 µM (inactive).

Regarding `CCC12CCCN(Cc3ccccc3)C1c1c(n(C)c3ccccc13)C(C(=O)OC)C2` (stereo not drawn), the GI50 in the assay on KM-20L2 was 130 µM (inactive); in the assay with DMS-114, 90.6 µM (inactive); with XF498, 36.8 µM (inactive); in the assay on RXF 631 it was 111 µM (inactive); in the assay with DMS-273 it was 84.5 µM (inactive); with LXFL 529, 96.6 µM (inactive). In the assay with M19-MEL, the GI50 was 112 µM (inactive).

For `O=[N+]([O-])/C=C/c1ccc(Cl)cc1Cl`, the GI50 was 18.7 µM (inactive) in the assay on KM-20L2; 17.8 µM (inactive) in the assay on DMS-114; 11 µM (inactive) in the assay with DMS-273; 13.8 µM (inactive) with LXFL 529; 5.77 µM (inactive) in the assay with M19-MEL.

Take `CNS(=O)(=O)NNS(=O)(=O)c1ccc2ccccc2c1`: the GI50 with HOP-18, with KM-20L2, with DMS-114, in the assay on SNB-78, with DMS-273 and in the assay on LXFL 529 was > 100 µM (inactive) throughout. Further, the GI50 in the assay on M19-MEL was > 100 µM (inactive).

For the molecule `Cc1ccccc1C1=C/C(=C(\SS/C(C(=O)c2ccc(OCC(=O)O)c(Cl)c2Cl)=C2\C=C(c3ccccc3C)SS2)C(=O)c2ccc(OCC(=O)O)c(Cl)c2Cl)SS1`, the GI50 is 16.2 µM (inactive) with HOP-18; 37.9 µM (inactive) with KM-20L2; 9.04 µM (inactive) with DMS-114; 14.4 µM (inactive) in the assay with SNB-78; 19.2 µM (inactive) in the assay with XF498; 25.9 µM (inactive) in the assay with RXF 631. In addition, the results for the GI50 in the assay with DMS-273, in the assay on LXFL 529 and in the assay with M19-MEL were 20 µM (inactive), 4.45 µM (inactive) and 21.3 µM (inactive), respectively.

In the case of `C[C@H](OCc1ccccc1)C(=O)N1CCS(=O)(=O)N2CCC[C@H]2C1=O`, the GI50 with HOP-18, in the assay on KM-20L2, with DMS-114, with SNB-78, in the assay on RXF 631 and in the assay on LXFL 529 was > 100 µM (inactive) in each case. In the assay with M19-MEL, the GI50 is > 100 µM (inactive).

On to `Cc1cc(O)nc(NNC(C#N)c2ccccc2O)n1` (stereo not drawn), for which the GI50 with HOP-18 was 23.3 µM (inactive); with KM-20L2, 13.1 µM (inactive); in the assay on DMS-114, 19.8 µM (inactive); in the assay on DMS-273, 5.27 µM (inactive); with M19-MEL, 17.8 µM (inactive).

Regarding `CS(=O)(=O)c1ccc(COP(N)(=O)N(CCCl)CCCl)cc1` (stereo not drawn), the GI50 in the assay with KM-20L2, with DMS-114, in the assay with SNB-78, with XF498, in the assay with DMS-273 and in the assay on LXFL 529 was > 100 µM (inactive) in each case. Moreover, in the assay with M19-MEL, the GI50 was > 100 µM (inactive).

In the case of `CC[N+]1(C)CCC(O)(/C=C/c2ccccc2)C(C(=O)/C=C/c2ccccc2)C1` (stereo not drawn), the GI50 in the assay with HOP-18 was 16.6 µM (inactive); in the assay on KM-20L2, 18.3 µM (inactive); in the assay on DMS-114 it was 6.62 µM (inactive); with SNB-78 it was 24 µM (inactive); with XF498, 8.43 µM (inactive); in the assay with DMS-273, 4.72 µM (inactive). For the same molecule, the figures for the GI50 in the assay on LXFL 529 and with M19-MEL were 2.79 µM (inactive) and 9.98 µM (inactive), respectively.

With `CCOc1ccc(/C=C\c2cc(OC)c(OC)c(OC)c2)cc1`, the GI50 in the assay with KM-20L2 was 0.000241 µM (active); with DMS-114 it was 0.00118 µM (active); with SNB-78, 0.000745 µM (active); with XF498, 0.000453 µM (active); in the assay with RXF 631 it was 0.367 µM (active); in the assay on DMS-273 it was 0.0153 µM (active). Besides, the GI50 in the assay with LXFL 529 is < 0.0001 µM (active); in the assay with M19-MEL, 0.0191 µM (active).

As for `CC[C@H](C)C(=O)O[C@H]1C[C@@H](C)C=C2C=C[C@H](C)[C@H](CC[C@@H]3C[C@@H](O)CC(=O)O3)[C@H]21` [LOVASTATIN], the GI50 was > 30 µM (inactive) with HOP-18; > 30 µM (inactive) in the assay with KM-20L2; > 30 µM (inactive) in the assay with DMS-114; 8.69 µM (inactive) with DMS-273; 7.76 µM (inactive) in the assay with LXFL 529; 2.42 µM (inactive) with M19-MEL.

`COC(=O)c1ccccc1/N=C/c1ccc(N(CCC#N)S(=O)(=O)c2ccccc2)cc1`: the GI50 in the assay on HOP-18, with KM-20L2, in the assay on SNB-78, in the assay on XF498, in the assay on RXF 631 and in the assay on DMS-273 was > 100 µM (inactive) in each case. The GI50 with LXFL 529 and with M19-MEL was > 100 µM (inactive) in each case.

`COc1ccc(/C=N/N=C(\N)NO)cc1OC`: the GI50 in the assay with KM-20L2 was 37.8 µM (inactive); in the assay with DMS-114, 28.7 µM (inactive); with SNB-78 it was > 100 µM (inactive); in the assay with XF498 it was 35.1 µM (inactive); with DMS-273, 48.9 µM (inactive); in the assay with LXFL 529, 33.9 µM (inactive). Also, the GI50 in the assay with M19-MEL is 44.8 µM (inactive).

Regarding `Cc1ccccc1C(C#N)/C(=N/NC(=O)C(=O)NN)C(=O)Nc1cccc(C(F)(F)F)c1` (stereo not drawn), the GI50 with HOP-18, with KM-20L2, in the assay with DMS-114, with SNB-78, with RXF 631 and in the assay with DMS-273 was > 100 µM (inactive) throughout. In addition, the GI50 in the assay with LXFL 529 and with M19-MEL was > 100 µM (inactive) throughout.
